Assays:
GB1a/2 receptors [1] = biological target: T1, GB1a/2 receptors (Homo sapiens, UniProt O75899+Q9UBS5); test: PKA luminescence assay (R-RLuc-N / C-RLuc-C) of Gαi signaling in HEK293T cells; details: GABA 10 μM or CGP54626 10 μM; forskolin
GB1a/2 receptors [2] = biological target: T1, GB1a/2 receptors; test: BRET assay of G protein activation (Gαo-RLuc / Venus-Gγ2) in HEK293T cells; type: cell-based; design: Flag (N); expressed in transfected cells; host or cells: HEK293T cells stably expressing chimeric Gαqi; details: GABA or CGP54626, 10 μM
Method: We directly tested whether APP17 influences G protein activation by GBRs in transfected HEK293T cells. […] HEK293T cells were transiently transfected with Flag-GB1a, Flag-GB2, Gαo-RLuc, Gβ2, and Venus-Gγ2 plasmids with or without APP695. In order to ensure APP695 binding to GB1a/2 in trans a pool of HEK293T cells expressing APP695 was mixed with a pool of HEK293T cells expressing Flag-GB1a, Flag-GB2, Gαo-RLuc, Gβ2, and Venus-Gγ2. Transfected cells were seeded into 96-well microplates (Greiner Bio-One) at 100,000 cells/well. After 18 hr, cells were washed and coelenterazine h (5 µM, NanoLight Technologies, Prolume Ltd., Pinetop-Lakeside, AZ, USA) added for 5 min. […] BRET ratios were adjusted by subtracting the ratios obtained when RLuc fusion proteins were expressed alone. Each data point represents a technical quadruplicate.

GB1a/2 receptors [3] = biological target: T1, GB1a/2 receptors; test: SRE-luciferase accumulation assay (Gαqi/PLC) in HEK293T-Gαqi cells; details: constitutive and GABA-induced FLuc activity
mGlu5 receptors = test: Ca^2+ mobilization assay (Calcium 6) in HEK293T cells expressing mGlu5; type: cell-based; details: 1 and 10 µM

T1 sequence (Q9UBS5 15-961 limits assumed): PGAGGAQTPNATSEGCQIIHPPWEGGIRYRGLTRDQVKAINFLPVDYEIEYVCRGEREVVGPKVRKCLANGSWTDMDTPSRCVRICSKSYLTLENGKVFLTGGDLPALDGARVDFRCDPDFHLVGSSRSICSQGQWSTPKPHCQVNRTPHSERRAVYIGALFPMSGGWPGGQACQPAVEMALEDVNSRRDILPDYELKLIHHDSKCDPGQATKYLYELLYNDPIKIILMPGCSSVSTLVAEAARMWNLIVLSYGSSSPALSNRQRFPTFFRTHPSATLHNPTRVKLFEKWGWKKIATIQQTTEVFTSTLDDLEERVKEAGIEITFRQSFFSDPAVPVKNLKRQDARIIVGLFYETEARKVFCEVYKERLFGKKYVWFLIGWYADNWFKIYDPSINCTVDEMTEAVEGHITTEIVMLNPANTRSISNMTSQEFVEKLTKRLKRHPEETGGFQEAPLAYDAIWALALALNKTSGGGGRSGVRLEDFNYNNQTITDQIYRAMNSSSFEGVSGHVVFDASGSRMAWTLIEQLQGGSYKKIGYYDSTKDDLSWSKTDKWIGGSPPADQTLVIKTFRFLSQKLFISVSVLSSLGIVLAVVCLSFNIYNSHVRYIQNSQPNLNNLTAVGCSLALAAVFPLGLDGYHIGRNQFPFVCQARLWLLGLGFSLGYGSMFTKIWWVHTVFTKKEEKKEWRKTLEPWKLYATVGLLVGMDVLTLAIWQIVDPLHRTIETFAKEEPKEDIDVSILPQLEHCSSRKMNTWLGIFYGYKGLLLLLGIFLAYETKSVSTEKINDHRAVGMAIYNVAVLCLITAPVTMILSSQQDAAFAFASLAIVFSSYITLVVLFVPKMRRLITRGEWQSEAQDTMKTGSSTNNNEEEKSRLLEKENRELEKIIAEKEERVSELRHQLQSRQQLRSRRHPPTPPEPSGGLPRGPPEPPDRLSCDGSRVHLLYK
T1 sequence (O75899 42-941 partner): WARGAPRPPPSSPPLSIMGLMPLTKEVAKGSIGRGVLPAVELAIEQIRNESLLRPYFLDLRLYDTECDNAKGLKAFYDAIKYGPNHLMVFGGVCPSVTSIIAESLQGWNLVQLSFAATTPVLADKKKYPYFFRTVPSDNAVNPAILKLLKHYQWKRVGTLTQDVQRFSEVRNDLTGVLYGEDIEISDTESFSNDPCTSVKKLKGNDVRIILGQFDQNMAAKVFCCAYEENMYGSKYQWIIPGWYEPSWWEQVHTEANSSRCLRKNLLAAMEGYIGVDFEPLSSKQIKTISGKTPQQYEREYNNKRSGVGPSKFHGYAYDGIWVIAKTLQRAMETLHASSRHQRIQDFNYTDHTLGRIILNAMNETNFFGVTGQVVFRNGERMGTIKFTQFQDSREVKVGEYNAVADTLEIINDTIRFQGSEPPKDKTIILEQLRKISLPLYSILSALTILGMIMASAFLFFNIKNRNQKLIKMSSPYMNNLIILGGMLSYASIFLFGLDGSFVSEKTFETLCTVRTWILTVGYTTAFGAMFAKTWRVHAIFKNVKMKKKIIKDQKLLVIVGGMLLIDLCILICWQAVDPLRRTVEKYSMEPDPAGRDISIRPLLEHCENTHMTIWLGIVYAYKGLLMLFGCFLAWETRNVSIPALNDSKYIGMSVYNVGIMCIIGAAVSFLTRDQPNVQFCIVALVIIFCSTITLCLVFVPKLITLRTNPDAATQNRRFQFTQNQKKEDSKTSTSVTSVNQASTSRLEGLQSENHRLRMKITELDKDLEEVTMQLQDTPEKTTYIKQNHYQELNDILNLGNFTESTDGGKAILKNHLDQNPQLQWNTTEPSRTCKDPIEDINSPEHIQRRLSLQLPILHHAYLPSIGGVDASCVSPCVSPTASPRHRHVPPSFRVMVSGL

Row | luminescence change by receptor ligand (in words) (GB1a/2 receptors [1]) | BRET change by receptor ligand (in words) (GB1a/2 receptors [2]) | Compound | block of receptor activity (in words) (GB1a/2 receptors [3]) | intracellular Ca^2+ mobilization (in words) (mGlu5 receptors)
1 | decreased luminescence below baseline | increased BRET above baseline | C[C@H](NC[C@H](O)CP(=O)(O)CC1CCCCC1)c1ccc(Cl)c(Cl)c1 [CGP54626] | blocked constitutive and GABA-induced receptor activity | 
2 |  |  | N[C@H](C(=O)O)c1cc(O)cc(O)c1 [DHPG] |  | concentration-dependent increase in intracellular Ca^2+

From paper PMC9917443 (eLife, 2023)
